Calls of active or inactive are those of the source. No cut-off for these calls is given here.

Here are results for 5 molecules from ChEMBL document CHEMBL6127023, “3-Tetrazolyl-β-carboline derivatives as potential neuroprotective agents” (Bioorg Med Chem, 2024).

Series [1] has as its system SH-SY5Y. Nature of the series: Cytotoxicity against human SH-SY5Y cells assessed as decrease in neutral red dye uptake at 10 uM incubated for 24 hrs relative to control. Details: scale not given: the % may be the effect or the level left. In kind it is toxicity, cell-based.
Series [2] relates to SH-SY5Y. Put plainly: Cytotoxicity against human SH-SY5Y cells assessed as decrease in neutral red dye uptake at 25 uM incubated for 24 hrs relative to control. The series is classed as toxicity, cell-based. Further details: scale not given: the % may be the effect or the level left.
For series [3], the system named is SH-SY5Y. Nature of the series: Cytotoxicity against human SH-SY5Y cells assessed as decrease in neutral red dye uptake at 50 uM incubated for 24 hrs relative to control. The series is classed as toxicity, cell-based. Further details: scale not given: the % may be the effect or the level left.
The subject of series [4] is SH-SY5Y. Put plainly: Cytotoxicity against human SH-SY5Y cells assessed as decrease in resazurin dye at 10 uM incubated for 24 hrs relative to control. The series is classed as toxicity, cell-based. Further details: scale not given: the % may be the effect or the level left. (Resazurin is reduced to fluorescent resorufin, in cell work by metabolically active cells.)
Series [5] concerns SH-SY5Y. Put plainly: Cytotoxicity against human SH-SY5Y cells assessed as decrease in resazurin dye at 25 uM incubated for 24 hrs relative to control. In kind it is toxicity, cell-based. Further details: scale not given: the % may be the effect or the level left.
Series [6] relates to SH-SY5Y. Nature of the series: Cytotoxicity against human SH-SY5Y cells assessed as decrease in resazurin dye at 50 uM incubated for 24 hrs relative to control. In kind it is toxicity, cell-based. Further details: scale not given: the % may be the effect or the level left.
The test system of series [7] is SH-SY5Y. Nature of the series: Cytotoxicity against human SH-SY5Y cells at 5 uM incubated for 24 hrs. In kind it is toxicity, cell-based.
In series [8] the test system is SH-SY5Y. Nature of the series: Induction of ROS production in human SH-SY5Y cells at 50 uM incubated for 24 hrs by DCFH-DA probe based analysis relative to control. In kind it is functional.
Series [9] concerns SH-SY5Y. Put plainly: Neuroprotective effect in MPP+-induced cytotoxicity in human SH-SY5Y cells assessed as increase in neutral red dye uptake at 2.5 uM preincubated with 500 uM MPP+ for 30 mins followed by compound treatment for 24 hrs (reference value: 83.9 %). In kind it is functional. Particulars: time 24.5 hrs.
Series [10] deals with SH-SY5Y. Put plainly: Neuroprotective effect in MPP+-induced cytotoxicity in human SH-SY5Y cells assessed as increase in neutral red dye uptake at 1 uM preincubated with 1000 uM MPP+ for 30 mins followed by compound treatment for 24 hrs (reference value: 76.2 %). The conditions noted are these: time 24.5 hrs. The series is classed as functional.
Series [11] deals with SH-SY5Y. Nature of the series: Neuroprotective effect in MPP+-induced cytotoxicity in human SH-SY5Y cells assessed as increase in neutral red dye uptake at 2.5 uM preincubated with 1000 uM MPP+ for 30 mins followed by compound treatment for 24 hrs (reference value: 76.2 %). Particulars: time 24.5 hrs. In kind it is functional.
The test system of series [12] is SH-SY5Y. Put plainly: Neuroprotective effect in MPP+-induced cytotoxicity in human SH-SY5Y cells assessed as increase in neutral red dye uptake at 5 uM preincubated with 1000 uM MPP+ for 30 mins followed by compound treatment for 24 hrs (reference value: 76.2 %). In kind it is functional. Particulars: time 24.5 hrs.
In series [13] the test system is SH-SY5Y. Nature of the series: Neuroprotective effect in Fe3+-induced cytotoxicity in human SH-SY5Y cells assessed as increase in neutral red dye uptake at 2.5 to 5 uM preincubated with 1000 uM FeNTA for 30 mins followed by compound treatment for 24 hrs. The series is classed as functional, cell-based. The conditions noted are these: dose 2.5-5 µM, time 24.5 hrs.

The test system of series [14] is SH-SY5Y. Nature of the series: Cytotoxicity against human SH-SY5Y cells upto 10 uM incubated for 24 hrs. In kind it is toxicity, cell-based.
The test system of series [15] is SH-SY5Y. Put plainly: Neuroprotective effect in MPP+-induced cytotoxicity in human SH-SY5Y cells assessed as increase in neutral red dye uptake at 1 uM preincubated with 500 uM MPP+ for 30 mins followed by compound treatment for 24 hrs (reference value: 81.1 %). In kind it is functional. The conditions noted are these: time 24.5 hrs.
Series [16] has as its system SH-SY5Y. Nature of the series: Neuroprotective effect in MPP+-induced cytotoxicity in human SH-SY5Y cells assessed as increase in neutral red dye uptake at 2.5 uM preincubated with 500 uM MPP+ for 30 mins followed by compound treatment for 24 hrs (reference value: 81.1 %). In kind it is functional. The conditions noted are these: time 24.5 hrs.
Series [17] relates to SH-SY5Y. Nature of the series: Neuroprotective effect in MPP+-induced cytotoxicity in human SH-SY5Y cells assessed as increase in neutral red dye uptake at 5 uM preincubated with 500 uM MPP+ for 30 mins followed by compound treatment for 24 hrs (reference value: 81.1 %). In kind it is functional. The conditions noted are these: time 24.5 hrs.
The subject of series [18] is SH-SY5Y. Put plainly: Neuroprotective effect in MPP+-induced cytotoxicity in human SH-SY5Y cells assessed as increase in neutral red dye uptake at 1 uM preincubated with 500 uM MPP+ for 30 mins followed by compound treatment for 24 hrs (reference value: 75 %). In kind it is functional. The conditions noted are these: time 24.5 hrs.
Series [19] concerns SH-SY5Y. Put plainly: Neuroprotective effect in MPP+-induced cytotoxicity in human SH-SY5Y cells assessed as increase in neutral red dye uptake at 2.5 uM preincubated with 500 uM MPP+ for 30 mins followed by compound treatment for 24 hrs (reference value: 75 %). In kind it is functional. Particulars: time 24.5 hrs.
Series [20] deals with SH-SY5Y. Nature of the series: Neuroprotective effect in Fe3+-induced cytotoxicity in human SH-SY5Y cells assessed as increase in neutral red dye uptake at 1 to 10 uM preincubated with 500 to 1000 uM FeNTA for 30 mins followed by compound treatment for 24 hrs. In kind it is functional, cell-based. Particulars: dose 1-10 µM, time 24.5 hrs.
Series [21] concerns SH-SY5Y. Nature of the series: Neuroprotective effect in MPP+-induced cytotoxicity in human SH-SY5Y cells assessed as increase in neutral red dye uptake at 1 uM preincubated with 500 uM MPP+ for 30 mins followed by compound treatment for 24 hrs (reference value: 83.3 %). The series is classed as functional. Particulars: time 24.5 hrs.
Series [22] has as its system SH-SY5Y. Put plainly: Neuroprotective effect in MPP+-induced cytotoxicity in human SH-SY5Y cells assessed as increase in neutral red dye uptake at 2.5 uM preincubated with 500 uM MPP+ for 30 mins followed by compound treatment for 24 hrs (reference value: 83.3 %). In kind it is functional. The conditions noted are these: time 24.5 hrs.
The subject of series [23] is SH-SY5Y. Nature of the series: Neuroprotective effect in MPP+-induced cytotoxicity in human SH-SY5Y cells assessed as increase in neutral red dye uptake at 5 uM preincubated with 500 uM MPP+ for 30 mins followed by compound treatment for 24 hrs (reference value: 83.3 %). In kind it is functional. The conditions noted are these: time 24.5 hrs.
The test system of series [24] is SH-SY5Y. Nature of the series: Neuroprotective effect in MPP+-induced cytotoxicity in human SH-SY5Y cells assessed as increase in neutral red dye uptake at 1 uM preincubated with 1000 uM MPP+ for 30 mins followed by compound treatment for 24 hrs (reference value: 75.8 %). In kind it is functional. Particulars: time 24.5 hrs.
The subject of series [25] is SH-SY5Y. Put plainly: Neuroprotective effect in MPP+-induced cytotoxicity in human SH-SY5Y cells assessed as increase in neutral red dye uptake at 2.5 uM preincubated with 1000 uM MPP+ for 30 mins followed by compound treatment for 24 hrs (reference value: 75.8 %). In kind it is functional. Particulars: time 24.5 hrs.
Series [26] deals with SH-SY5Y. Put plainly: Neuroprotective effect in MPP+-induced cytotoxicity in human SH-SY5Y cells assessed as increase in neutral red dye uptake at 5 uM preincubated with 1000 uM MPP+ for 30 mins followed by compound treatment for 24 hrs (reference value: 75.8 %). Particulars: time 24.5 hrs. In kind it is functional.
Series [27] deals with SH-SY5Y. Put plainly: Neuroprotective effect in Fe3+-induced cytotoxicity in human SH-SY5Y cells assessed as increase in neutral red dye uptake at 1 uM preincubated with 500 uM FeNTA for 30 mins followed by compound treatment for 24 hrs (reference value: 81.4 %). The series is classed as functional. The conditions noted are these: time 24.5 hrs.
Series [28] deals with SH-SY5Y. Nature of the series: Cytotoxicity against human SH-SY5Y cells assessed as decrease in resazurin dye upto 50 uM incubated for 24 hrs. The series is classed as toxicity, cell-based.
Series [29] deals with SH-SY5Y. Put plainly: Neuroprotective effect in MPP+-induced cytotoxicity in human SH-SY5Y cells assessed as increase in neutral red dye uptake at 1 to 10 uM preincubated with 500 uM MPP+ for 30 mins followed by compound treatment for 24 hrs. The conditions noted are these: dose 1-10 µM, time 24.5 hrs. In kind it is functional, cell-based.
Series [30] relates to SH-SY5Y. Put plainly: Cytotoxicity against human SH-SY5Y cells assessed as decrease in neutral red dye uptake upto 50 uM incubated for 24 hrs. In kind it is toxicity, cell-based.

For `Fc1ccc(-c2nc(-c3nnnn3Cc3ccccc3)cc3c2[nH]c2ccccc23)cc1`, the Activity is given as 83.6% with SH-SY5Y [1]; 70.5% in the series with SH-SY5Y [2]; 56.1% with SH-SY5Y [3]; 80% with SH-SY5Y [4]; 62.2% in the series with SH-SY5Y [5]; 48.5% in the series with SH-SY5Y [6]. Moreover, the Activity entry in the series on SH-SY5Y [7] is reported as “Non-Toxic”; in the series with SH-SY5Y [8] it was 108.2%; in the series with SH-SY5Y [9], 91.4%; in the series on SH-SY5Y [10], 84.8%; in the series with SH-SY5Y [11], 83.4%; in the series with SH-SY5Y [12], 83.2%. In addition, the result in the series on SH-SY5Y [13] was Active.
Regarding `CN(C)c1ccc(-c2nc(-c3nnnn3Cc3ccccc3)cc3c2[nH]c2ccccc23)cc1`, the Activity entry was “Non-Toxic” in the series with SH-SY5Y [14]; 80.5% in the series with SH-SY5Y [3]; 97.8% in the series with SH-SY5Y [15]; 92.3% with SH-SY5Y [16]; 85.8% in the series on SH-SY5Y [17]; 90.3% in the series on SH-SY5Y [18]. Besides, the Activity in the series with SH-SY5Y [19] is on record as 83.6%. Moreover, the outcome with SH-SY5Y [20] was inactive.
As for `c1ccc(Cn2nnnc2-c2cc3c([nH]c4ccccc43)c(-c3ccccc3)n2)cc1`, the Activity is listed as 85.6% in the series on SH-SY5Y [1]; 81.3% in the series with SH-SY5Y [2]; 65.9% with SH-SY5Y [3]; 74% with SH-SY5Y [5]; 59.3% in the series with SH-SY5Y [6]; “Non-Toxic” in the series on SH-SY5Y [7]. The Activity in the series on SH-SY5Y [21] is listed as 91.4%; in the series with SH-SY5Y [22] it was 92.1%; in the series on SH-SY5Y [23], 93.5%; with SH-SY5Y [24], 87.1%; in the series with SH-SY5Y [25], 84.6%; with SH-SY5Y [26], 89.1%. Also, the Activity in the series on SH-SY5Y [27] was 87.6%.
Regarding `Clc1ccccc1-c1nc(-c2nnnn2Cc2ccccc2)cc2c1[nH]c1ccccc12`, the Activity entry in the series on SH-SY5Y [14] was “Non-Toxic”; in the series with SH-SY5Y [2], 84%; in the series on SH-SY5Y [3], 81.7%; in the series on SH-SY5Y [28], “Non-Toxic”. Also, in the series on SH-SY5Y [29], the result was Active.
As to `O=[N+]([O-])c1cccc(-c2nc(-c3nnnn3Cc3ccccc3)cc3c2[nH]c2ccccc23)c1`, the Activity entry in the series with SH-SY5Y [14] was “Non-Toxic”; with SH-SY5Y [6], 92.6%; in the series with SH-SY5Y [30], “Non-Toxic”. Besides, in the series with SH-SY5Y [29], the outcome was inactive.
